In PubChem BioAssay AID1963854 (Molecular Pharmacology Branch, DTP, NCI, 2024):

System: 186277-243-T-J2-PDC complex spheroid viability
Assay: Anticancer human tumor 186277-243-T-J2-PDC patient-derived colon adenocarcinoma cell line growth inhibition [POLQ]
Details: for IC50: curve of first compound; for viability, T/C: stronger effect = lower value
How it was run: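 Growth inhibition in 3D: complex spheroids (tumor PDC, HUVEC, MSC) treated with POLQ inhibitor combinations; where Cmax unknown, highest tested concentration 10 microM, except SN-38 at 1 microM.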

[1] = second compound 0.0316 µM, first compound 0.0316 µM
[2] = second compound 0.0316 µM, first compound 0.1 µM
[3] = second compound 0.1 µM, first compound 0.0316 µM
[4] = second compound 0.1 µM, first compound 0.1 µM
[5] = second compound 0.316 µM, first compound 0.0316 µM
[6] = second compound 0.316 µM, first compound 0.1 µM
[7] = second compound 1 µM, first compound 0.0316 µM
[8] = second compound 1 µM, first compound 0.1 µM
[9] = second compound 3.16 µM, first compound 0.0316 µM
[10] = second compound 3.16 µM, first compound 0.1 µM
[11] = second compound 10 µM, first compound 0.0316 µM
[12] = second compound 10 µM, first compound 0.1 µM
[13] = second compound 0.0316 µM, first compound 0.316 µM
[14] = second compound 0.0316 µM, first compound 1 µM
[15] = second compound 0.0316 µM, first compound 3.16 µM
[16] = second compound 0.0316 µM, first compound 10 µM
[17] = second compound 0.1 µM, first compound 0.316 µM
[18] = second compound 0.1 µM, first compound 1 µM
[19] = second compound 0.1 µM, first compound 3.16 µM
[20] = second compound 0.1 µM, first compound 10 µM
[21] = second compound 0.316 µM, first compound 0.316 µM
[22] = second compound 0.316 µM, first compound 1 µM
[23] = second compound 0.316 µM, first compound 3.16 µM
[24] = second compound 0.316 µM, first compound 10 µM
[25] = second compound 1 µM, first compound 0.316 µM
[26] = second compound 1 µM, first compound 1 µM
[27] = second compound 1 µM, first compound 3.16 µM
[28] = second compound 1 µM, first compound 10 µM
[29] = second compound 3.16 µM, first compound 0.316 µM
[30] = second compound 3.16 µM, first compound 1 µM
[31] = second compound 3.16 µM, first compound 3.16 µM
[32] = second compound 3.16 µM, first compound 10 µM
[33] = second compound 10 µM, first compound 0.316 µM
[34] = second compound 10 µM, first compound 1 µM
[35] = second compound 10 µM, first compound 3.16 µM
[36] = second compound 10 µM, first compound 10 µM
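Further: spheroids exposed to compounds for seven days.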
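Wherever viability, T/C is given: 100% = DMSO vehicle control viability.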

Cn1ncnc1[C@H]1c2n[nH]c(=O)c3cc(F)cc(c23)N[C@@H]1c1ccc(F)cc1 + COC1C(OC(N)=O)C(O)C(Oc2ccc3c(O)c(NC(=O)c4ccc(O)c(CC=C(C)C)c4)c(=O)oc3c2C)OC1(C)C
IC50 (second compound 0.0316 µM): > 100 nM | IC50 (second compound 0.1 µM): > 100 nM | IC50 (second compound 0.316 µM): > 100 nM | IC50 (second compound 1 µM): > 100 nM | IC50 (second compound 3.16 µM): > 100 nM | IC50 (second compound 10 µM): > 100 nM | viability, T/C (second compound 0.0316 µM, first compound 0.000316 µM): 96.7% | viability, T/C (second compound 0.0316 µM, first compound 0.001 µM): 93% | viability, T/C (second compound 0.0316 µM, first compound 0.00316 µM): 114% | viability, T/C (second compound 0.0316 µM, first compound 0.01 µM): 112% | viability, T/C [1]: 119% | viability, T/C [2]: 105% | viability, T/C (second compound 0.1 µM, first compound 0.000316 µM): 103% | viability, T/C (second compound 0.1 µM, first compound 0.001 µM): 110% | viability, T/C (second compound 0.1 µM, first compound 0.00316 µM): 103% | viability, T/C (second compound 0.1 µM, first compound 0.01 µM): 106% | viability, T/C [3]: 116% | viability, T/C [4]: 108% | viability, T/C (second compound 0.316 µM, first compound 0.000316 µM): 101% | viability, T/C (second compound 0.316 µM, first compound 0.001 µM): 111% | viability, T/C (second compound 0.316 µM, first compound 0.00316 µM): 111% | viability, T/C (second compound 0.316 µM, first compound 0.01 µM): 105% | viability, T/C [5]: 114% | viability, T/C [6]: 108% | viability, T/C (second compound 1 µM, first compound 0.000316 µM): 84.4% | viability, T/C (second compound 1 µM, first compound 0.001 µM): 110% | viability, T/C (second compound 1 µM, first compound 0.00316 µM): 108% | viability, T/C (second compound 1 µM, first compound 0.01 µM): 98.3% | viability, T/C [7]: 118% | viability, T/C [8]: 102% | viability, T/C (second compound 3.16 µM, first compound 0.000316 µM): 92.4% | viability, T/C (second compound 3.16 µM, first compound 0.001 µM): 106% | viability, T/C (second compound 3.16 µM, first compound 0.00316 µM): 107% | viability, T/C (second compound 3.16 µM, first compound 0.01 µM): 117% | viability, T/C [9]: 128% | viability, T/C [10]: 100% | viability, T/C (second compound 10 µM, first compound 0.000316 µM): 96.2% | viability, T/C (second compound 10 µM, first compound 0.001 µM): 106% | viability, T/C (second compound 10 µM, first compound 0.00316 µM): 110% | viability, T/C (second compound 10 µM, first compound 0.01 µM): 101% | viability, T/C [11]: 109% | viability, T/C [12]: 104%

CC1COCCN1c1cc(-c2ccnn2C)c2ccnc(-c3ccn[nH]3)c2n1 (stereo unspecified) + Nc1ccc(C#CCN(C(=O)Cc2ncc(C(F)(F)F)cc2C(F)(F)F)c2ccc(F)cc2)nn1
IC50 (second compound 0.0316 µM): 74 nM | IC50 (second compound 0.1 µM): 75.2 nM | IC50 (second compound 0.316 µM): 76.3 nM | IC50 (second compound 1 µM): 76.4 nM | IC50 (second compound 3.16 µM): 75.8 nM | IC50 (second compound 10 µM): 71.9 nM | viability, T/C [1]: 113% | viability, T/C [2]: 27.5% | viability, T/C [13]: 10.3% | viability, T/C [14]: 7.67% | viability, T/C [15]: 6.65% | viability, T/C [16]: 7.86% | viability, T/C [3]: 115% | viability, T/C [4]: 28.8% | viability, T/C [17]: 11% | viability, T/C [18]: 7.38% | viability, T/C [19]: 6.86% | viability, T/C [20]: 9.94% | viability, T/C [5]: 126% | viability, T/C [6]: 26.8% | viability, T/C [21]: 9.95% | viability, T/C [22]: 7.12% | viability, T/C [23]: 6.81% | viability, T/C [24]: 9.08% | viability, T/C [7]: 124% | viability, T/C [8]: 27.5% | viability, T/C [25]: 9.34% | viability, T/C [26]: 7.54% | viability, T/C [27]: 6.88% | viability, T/C [28]: 9.31% | viability, T/C [9]: 123% | viability, T/C [10]: 26.7% | viability, T/C [29]: 9.31% | viability, T/C [30]: 6.61% | viability, T/C [31]: 8.2% | viability, T/C [32]: 7.84% | viability, T/C [11]: 118% | viability, T/C [12]: 22.5% | viability, T/C [33]: 9.8% | viability, T/C [34]: 7.22% | viability, T/C [35]: 6.51% | viability, T/C [36]: 7.63%

O=c1[nH]cc(F)c(=O)[nH]1 + Cc1cccc(N(C)C(=O)C2C(O)CCN2c2nc(C)cc(C(F)(F)F)c2C#N)c1
IC50 (second compound 0.0316 µM): 9400 nM | IC50 (second compound 0.1 µM): > 10000 nM | IC50 (second compound 0.316 µM): 9140 nM | IC50 (second compound 1 µM): 9770 nM | IC50 (second compound 3.16 µM): > 10000 nM | IC50 (second compound 10 µM): 8830 nM | viability, T/C [1]: 103% | viability, T/C [2]: 99.5% | viability, T/C [13]: 95.4% | viability, T/C [14]: 112% | viability, T/C [15]: 75.5% | viability, T/C [16]: 48.5% | viability, T/C [3]: 105% | viability, T/C [4]: 99.9% | viability, T/C [17]: 98.9% | viability, T/C [18]: 98.3% | viability, T/C [19]: 73.5% | viability, T/C [20]: 52.2% | viability, T/C [5]: 87.2% | viability, T/C [6]: 91.6% | viability, T/C [21]: 94.4% | viability, T/C [22]: 116% | viability, T/C [23]: 76.5% | viability, T/C [24]: 47.8% | viability, T/C [7]: 102% | viability, T/C [8]: 102% | viability, T/C [25]: 104% | viability, T/C [26]: 103% | viability, T/C [27]: 79.9% | viability, T/C [28]: 49.4% | viability, T/C [9]: 112% | viability, T/C [10]: 108% | viability, T/C [29]: 88.5% | viability, T/C [30]: 99.7% | viability, T/C [31]: 81.8% | viability, T/C [32]: 52.1% | viability, T/C [11]: 105% | viability, T/C [12]: 110% | viability, T/C [33]: 100% | viability, T/C [34]: 111% | viability, T/C [35]: 77.6% | viability, T/C [36]: 46.7%
